Measurements reported in patent US4172198A, “7-(N-substituted-2-phenylglycinamido)-3-sub stituted-3-cephem-4-carboxylic acid compounds and preparation thereof” (Fujisawa Pharmaceutical Co., Ltd., priority 1976, dated 1979).
≈ marks a conversion by molar mass, not a printed value. Read-outs that look alike come from different tables or passages of the source.

Columns and labels:
Assay in all cases: minimal inhibitory concentration (MIC) by two-fold agar-plate dilution method
Format in all cases: cell-based
[1] = tested on: Sal. Enteritidis; details: Salmonella enterica, 10^8 viable cells per ml, HI-agar, 37° C., 20 hours
Description: (§1) The minimal inhibitory concentration (MIC) was determined by the two-fold agar-plate dilution method as described below.
(§2) One loopful of an overnight culture of each test strain in Trypticase-soy broth was streaked on heart infusion agar (HI-agar) containing graded concentrations of representative antibiotic, and the MICs were expressed in terms of μg/ml. after incubation at 37° C. for 20 hours.

[2] = tested on: Staph. Aureus 209-P; details: Staphylococcus aureus, 10^8 viable cells per ml, HI-agar, 37° C., 20 hours
Description: as §1, §2

[3] = tested on: B. Subtilis ATCC-6633; details: Bacillus subtilis, ATCC6633, 10^8 viable cells per ml, HI-agar, 37° C., 20 hours
Description: as §1, §2

[4] = tested on: Ps. Aeruginosa; details: Pseudomonas aeruginosa
Description: as §1, §2

[5] = tested on: Sh flexneri 2a; details: 20 h
Description: (§3) For the purpose of illustrating of usefulness of the object compound(1) of this invention, the following minimal inhibitory concentrations of some representative compounds against some test strains will be shown.
as §1, §2

[6] = tested on: Ps. Aeruginosa 721; details: Pseudomonas aeruginosa, 10^6 viable cells per ml, HI-agar, 37° C., 20 hours
Description: as §3, §1, §2

[7] = Sal. Enteritidis, first part of table
[8] = ENTERITIDIS, Sal. Enteritides, second part of table
[9] = Ps. Aeruginosa, 10^6 viable cells per ml, HI-agar, 37° C., 20 hours, read-out: MIC

| Structure (SMILES) | MIC [6] | MIC [5] | MIC [1, 8] | MIC [4, 9] | further results |
| --- | --- | --- | --- | --- | --- |
| Cc1[nH]cc(OCC(=O)N[C@@H](C(=O)NC2C(=O)N3C(C(=O)[O-])=C(CSc4nnnn4C)CS[C@H]23)c2ccccc2)c(=O)c1Cl.[Na+] (stereo partly drawn) [Example 1-31, sodium 7-{D-2-[2-(4-oxo-5-chloro-6-methyl-1,4-dihydropyridin-3-yloxy)acetamido]-2-phenylacetamido}-3-(1-methyl-1H-tetrazol-5-ylthiomethyl)-3-cephem-4-carboxylate] |  | 0.2 µg/mL |  |  | MIC [1, 7]: 0.39 µg/mL; MIC [2]: 1.56 µg/mL; MIC [3]: 0.78 µg/mL; MIC ([4]; 20 h): 0.78 µg/mL |
| Cn1nnnc1SCC1=C(C(=O)O)N2C(=O)C(NC(=O)[C@H](NC(=O)c3nonc3O)c3ccccc3)[C@H]2SC1 (stereo partly drawn) [Example 1-1, 7-[D-2-(4-hydroxy-3-furazancarboxamido)-2-phenylacetamido]-3-(1-methyl-1H-tetrazol-5-ylthiomethyl)-3-cephem-4-carboxylic acid] | 0.39 µg/mL (≈ 0.68 µM) |  |  |  |  |
| Cc1cc(=O)c(OCC(=O)N[C@@H](C(=O)NC2C(=O)N3C(C(=O)O)=C(CSc4nnnn4C)CSC23)c2ccccc2)c[nH]1 (stereo partly drawn) [Example 1-36, 7-{D-2-[2-(4-oxo-6-methyl-1,4-dihydropyridin-3-yloxy)acetamido]-2-phenylacetamido}-3-(1-methyl-1H-tetrazol-5-ylthiomethyl)-3-cephem-4-carboxylic acidm] |  | 0.39 µg/mL (≈ 0.622 µM) | 0.78 µg/mL (≈ 1.24 µM) | 1.56 µg/mL (≈ 2.49 µM) |  |
| Cn1nnnc1SCC1=C(C(=O)O)N2C(=O)C(NC(=O)[C@H](NC(=O)COc3c[nH]c(CO)c(Cl)c3=O)c3ccccc3)[C@H]2SC1 (stereo partly drawn) [Example 1-34, 7-{D-2-[2-(4-oxo-5-chloro-6-hydroxymethyl-1,4-dihydropyridin-3-yloxy)-acetamido]-2-phenylacetamido}-3-(1-methyl-1H-tetrazol-5-ylthiomethyl)-3-cephem-4-carboxylic acid] |  | 0.2 µg/mL (≈ 0.295 µM) | 0.2 µg/mL (≈ 0.295 µM) | 0.78 µg/mL (≈ 1.15 µM) |  |
| Cn1nnnc1SCC1=C(C(=O)O)N2C(=O)C(NC(=O)[C@H](NC(=O)c3cnc4ccccn4c3=O)c3ccccc3)C2SC1 (stereo partly drawn) [Example 1-6, 7-[D-2-(4-oxo-4H-pyrido[1,2-a]pyrimidine-3-carboxamido)-2-phenylacetamide]-3-(1-methyl-1H-tetrazol-5-ylthiomethyl)-3-cephem-4-carboxylic acid] | 1.56 µg/mL (≈ 2.46 µM) |  |  |  |  |
| Cn1nnnc1SCC1=C(C(=O)O)N2C(=O)C(NC(=O)[C@H](NC(=O)COc3c[nH]c(CCl)cc3=O)c3ccccc3)C2SC1 (stereo partly drawn) [Example 1-35, 7-{D-2-[2-(4-oxo-6-chloromethyl-1,4-dihydropyridin-3-yloxy)acetamido]-2-penylacetamido}-3-(1-methyl-1H-tetrazol-5-ylthiomethyl)-3-cephem-4-carboxylicacid] |  | 0.39 µg/mL (≈ 0.59 µM) | 0.39 µg/mL (≈ 0.59 µM) | 0.78 µg/mL (≈ 1.18 µM) |  |
| Cc1[nH]cc(OCC(=O)N[C@@H](C(=O)NC2C(=O)N3C(C(=O)O)=C(CSc4nnnn4C)CSC23)c2ccc(O)cc2)c(=O)c1Cl (stereo partly drawn) [Example 1-37, 7-{D-2-[2-(4-oxo-5-chloro-6-methyl-1,4-dihydropyridin-3-yloxy)acetamido]-2-(4-hydroxy)phenylacetamido} -3-(1-methyl-1H-tetrazol-5-ylthiomethyl)-3-cephem-4-carboxylic acid] |  | 0.1 µg/mL (≈ 0.148 µM) | 0.05 µg/mL (≈ 0.0738 µM) | 0.78 µg/mL (≈ 1.15 µM) |  |

Second part, led by results:

| MIC [6] | Structure (SMILES) | MIC [5] | MIC [1, 8] | MIC [4, 9] | further results |
| --- | --- | --- | --- | --- | --- |
| 0.78 µg/mL (≈ 1.26 µM) | Cn1nnnc1SCC1=C(C(=O)O)N2C(=O)C(NC(=O)[C@H](NC(=O)c3cc(Cl)n[nH]c3=O)c3ccccc3)[C@H]2SC1 (stereo partly drawn) [Example 1-20, 7-[D-2-(3-oxo-6-chloro-2,3-dihydro-4-pyridazinecarboxamido)-2-phenylacetamido]-3-(1-methyl-1H-tetrazol-5-ylthiomethyl)-3-cephem-4-carboxylic acid] |  |  |  |  |
| 1.56 µg/mL (≈ 2.55 µM) | Cn1nnnc1SCC1=C(C(=O)O)N2C(=O)C(NC(=O)[C@H](NC(=O)Cc3cc(=O)[nH]c(=N)[nH]3)c3ccccc3)C2SC1 (some centres unmarked) [Example 1-16] |  |  |  |  |
| 0.39 µg/mL (≈ 0.66 µM) | Cn1nnnc1SCC1=C(C(=O)O)N2C(=O)C(NC(=O)[C@H](NC(=O)N3CCOC3=O)c3ccc(O)cc3)[C@H]2SC1 (stereo partly drawn) [Example 2-1, 7-[D-2-(2-oxo-3-oxazolidinecarboxamido)-2-(4-hydroxyphenyl)acetamido]-3-(1-methyl-1H-tetrazol-5-ylthiomethyl)-3-cephem-4-carboxylic acid] |  |  |  |  |
| 0.39 µg/mL (≈ 0.679 µM) | Cn1nnnc1SCC1=C(C(=O)O)N2C(=O)C(NC(=O)[C@H](NC(=O)N3CCOC3=O)c3ccccc3)[C@H]2SC1 (stereo partly drawn) [Example 1-10, 7-[D-2-(2-oxo-3-oxazolidinecarboxamido)-2-phenylacetamido]-3-(1-methyl-1H-tetrazol-5-ylthiomethyl)-3-cephem-4-carboxylic acid] |  |  |  | MIC [1, 7]: 0.78 µg/mL (≈ 1.36 µM); MIC [2]: 0.78 µg/mL (≈ 1.36 µM); MIC [3]: 0.2 µg/mL (≈ 0.348 µM) |
